{"source": "patent US20140297199A1", "about": "“DRUG SCREENING METHOD AND USES THEREOF” (COLD SPRING HARBOR LABORATORY, priority 2011, published 2014)", "tested_on": "c-fos-GFP expression in the mouse brain", "assay": "c-fos-GFP pharmacomaps of three antipsychotics at a moderate dosage (Example 9)", "settings": "5 mouse brains per drug; for brain regions activated (pharmacomap): haloperidol 0.25 mg/kg, risperidone 1.0 mg/kg, aripiprazole 1.0 mg/kg, vs saline; for c-fos-GFP activation, Anterior cingulate cortex (ACAd) / c-fos-GFP activation, Anterior cingulate cortex (ACAv) / c-fos-GFP activation, Basal, Central, Cortic. Amydgala (AMG) / c-fos-GFP activation, Bed nucleus of Stria Terminalis (BST) / c-fos-GFP activation, Caudate-putamen (CP, dorso-medial) / c-fos-GFP activation, Caudate-putamen (CP, ventro-medial) / c-fos-GFP activation, Caudoputamen (CP, dorsolateral) / c-fos-GFP activation, Caudoputamen (CP, ventrolateral) / c-fos-GFP activation, Central medial thalamic nucleus / c-fos-GFP activation, Claustrum (CLA) / c-fos-GFP activation, Dorsomedial hypoth. (HYP) / c-fos-GFP activation, Gostatory Cx (GU) / c-fos-GFP activation, Hippocampus: CA1, CA2, CA3 (HF) / c-fos-GFP activation, Hippocampus: DG / c-fos-GFP activation, Hypothalamus, ventromedial nuclei / c-fos-GFP activation, Infralimbic cortex (IL) / c-fos-GFP activation, Insular area, agranular / c-fos-GFP activation, Lateral Septum (LS) / c-fos-GFP activation, Lateral Spetal Nucl, dorsal part / c-fos-GFP activation, Midline Thalamus (Nucl Reuniens, RE) / c-fos-GFP activation, Midline Thalamus (PVT) / c-fos-GFP activation, Motor area, primary (MOp) / c-fos-GFP activation, Motor area, secondary (MOs) / c-fos-GFP activation, Nucleus Accumbens (ACB), core / c-fos-GFP activation, Nucleus Accumbens (ACB), shell / c-fos-GFP activation, Nucleus Accumbens (ACB), whole / c-fos-GFP activation, Olfactory tubercle (OT) / c-fos-GFP activation, Orbital cortex ventral (VO) / c-fos-GFP activation, Orbital cx (ORB), lateral / c-fos-GFP activation, Orbital cx (ORB), medial / c-fos-GFP activation, Piriform cx (PIR) / c-fos-GFP activation, Prelimbic cx (PL) / c-fos-GFP activation, RSPd, v, d and agl / c-fos-GFP activation, Red nucleus (RN) / c-fos-GFP activation, Somatosensory cx, primary / c-fos-GFP activation, Striatum, ventro-lateral / c-fos-GFP activation, Superior Colliculus (SC) / c-fos-GFP activation, Temporal cortex / c-fos-GFP activation, Ventromedial Thalamus (caudally) / c-fos-GFP activation, Zona Inserta: haloperidol 0.25, risperidone 1.0, aripiprazole 1.0 mg/kg, vs saline-injected control", "note": "Entries after “also recorded” stand apart in the source; their conditions may differ."}
{"smiles": "O=C1CCc2ccc(OCCCCN3CCN(c4cccc(Cl)c4Cl)CC3)cc2N1", "note": "[aripiprazole]", "values": [{"measurement": "brain regions activated (pharmacomap)", "result": "activated a partially overlapping pattern, with more cortical areas, including prominent activation of auditory association and entorhinal areas; also recorded: Parts of the amygdala (AMG), hippocampal formation (HF), and midline thalamus (PVT and RE) also showed activation"}, {"measurement": "c-fos-GFP activation, Anterior cingulate cortex (ACAd)", "result": "up"}, {"measurement": "c-fos-GFP activation, Anterior cingulate cortex (ACAv)", "result": "up"}, {"measurement": "c-fos-GFP activation, Basal, Central, Cortic. Amydgala (AMG)", "result": "up"}, {"measurement": "c-fos-GFP activation, Bed nucleus of Stria Terminalis (BST)", "result": 0}, {"measurement": "c-fos-GFP activation, Caudate-putamen (CP, dorso-medial)", "result": 0}, {"measurement": "c-fos-GFP activation, Caudate-putamen (CP, ventro-medial)", "result": 0}, {"measurement": "c-fos-GFP activation, Caudoputamen (CP, dorsolateral)", "result": "up"}, {"measurement": "c-fos-GFP activation, Caudoputamen (CP, ventrolateral)", "result": 0}, {"measurement": "c-fos-GFP activation, Central medial thalamic nucleus", "result": "up"}, {"measurement": "c-fos-GFP activation, Claustrum (CLA)", "result": "up"}, {"measurement": "c-fos-GFP activation, Dorsomedial hypoth. (HYP)", "result": 0}, {"measurement": "c-fos-GFP activation, Gostatory Cx (GU)", "result": "up"}, {"measurement": "c-fos-GFP activation, Hippocampus: CA1, CA2, CA3 (HF)", "result": "up"}, {"measurement": "c-fos-GFP activation, Hippocampus: DG", "result": "down"}, {"measurement": "c-fos-GFP activation, Hypothalamus, ventromedial nuclei", "result": 0}, {"measurement": "c-fos-GFP activation, Infralimbic cortex (IL)", "result": "up"}, {"measurement": "c-fos-GFP activation, Insular area, agranular", "result": "up"}, {"measurement": "c-fos-GFP activation, Lateral Septum (LS)", "result": 0}, {"measurement": "c-fos-GFP activation, Lateral Spetal Nucl, dorsal part", "result": "up"}, {"measurement": "c-fos-GFP activation, Midline Thalamus (Nucl Reuniens, RE)", "result": "up"}, {"measurement": "c-fos-GFP activation, Midline Thalamus (PVT)", "result": "up"}, {"measurement": "c-fos-GFP activation, Motor area, primary (MOp)", "result": "up"}, {"measurement": "c-fos-GFP activation, Motor area, secondary (MOs)", "result": "up"}, {"measurement": "c-fos-GFP activation, Nucleus Accumbens (ACB), core", "result": "up"}, {"measurement": "c-fos-GFP activation, Nucleus Accumbens (ACB), shell", "result": "up"}, {"measurement": "c-fos-GFP activation, Nucleus Accumbens (ACB), whole", "result": 0}, {"measurement": "c-fos-GFP activation, Olfactory tubercle (OT)", "result": "up"}, {"measurement": "c-fos-GFP activation, Orbital cortex ventral (VO)", "result": 0}, {"measurement": "c-fos-GFP activation, Orbital cx (ORB), lateral", "result": "up"}, {"measurement": "c-fos-GFP activation, Orbital cx (ORB), medial", "result": "up"}, {"measurement": "c-fos-GFP activation, Piriform cx (PIR)", "result": 0}, {"measurement": "c-fos-GFP activation, Prelimbic cx (PL)", "result": "up"}, {"measurement": "c-fos-GFP activation, RSPd, v, d and agl", "result": "up"}, {"measurement": "c-fos-GFP activation, Red nucleus (RN)", "result": "down"}, {"measurement": "c-fos-GFP activation, Somatosensory cx, primary", "result": "up"}, {"measurement": "c-fos-GFP activation, Striatum, ventro-lateral", "result": "up"}, {"measurement": "c-fos-GFP activation, Superior Colliculus (SC)", "result": "up"}, {"measurement": "c-fos-GFP activation, Temporal cortex", "result": "up"}, {"measurement": "c-fos-GFP activation, Ventromedial Thalamus (caudally)", "result": "up"}, {"measurement": "c-fos-GFP activation, Zona Inserta", "result": "up"}]}
{"smiles": "Cc1nc2n(c(=O)c1CCN1CCC(c3noc4cc(F)ccc34)CC1)CCCC2", "note": "[risperidone]", "values": [{"measurement": "brain regions activated (pharmacomap)", "result": "activated the prelimbic (PL), orbital (ORB), piriform (PIR) and gustatory (GU) cortices, the dorsal and ventral CP, ACB, claustrum (CLA), and superior colliculus (SC)"}, {"measurement": "c-fos-GFP activation, Anterior cingulate cortex (ACAd)", "result": 0}, {"measurement": "c-fos-GFP activation, Anterior cingulate cortex (ACAv)", "result": 0}, {"measurement": "c-fos-GFP activation, Basal, Central, Cortic. Amydgala (AMG)", "result": 0}, {"measurement": "c-fos-GFP activation, Bed nucleus of Stria Terminalis (BST)", "result": 0}, {"measurement": "c-fos-GFP activation, Caudate-putamen (CP, dorso-medial)", "result": 0}, {"measurement": "c-fos-GFP activation, Caudate-putamen (CP, ventro-medial)", "result": 0}, {"measurement": "c-fos-GFP activation, Caudoputamen (CP, dorsolateral)", "result": "up"}, {"measurement": "c-fos-GFP activation, Caudoputamen (CP, ventrolateral)", "result": "up"}, {"measurement": "c-fos-GFP activation, Central medial thalamic nucleus", "result": 0}, {"measurement": "c-fos-GFP activation, Claustrum (CLA)", "result": "up"}, {"measurement": "c-fos-GFP activation, Dorsomedial hypoth. (HYP)", "result": 0}, {"measurement": "c-fos-GFP activation, Gostatory Cx (GU)", "result": "up"}, {"measurement": "c-fos-GFP activation, Hippocampus: CA1, CA2, CA3 (HF)", "result": 0}, {"measurement": "c-fos-GFP activation, Hippocampus: DG", "result": 0}, {"measurement": "c-fos-GFP activation, Hypothalamus, ventromedial nuclei", "result": "down"}, {"measurement": "c-fos-GFP activation, Infralimbic cortex (IL)", "result": 0}, {"measurement": "c-fos-GFP activation, Insular area, agranular", "result": 0}, {"measurement": "c-fos-GFP activation, Lateral Septum (LS)", "result": 0}, {"measurement": "c-fos-GFP activation, Lateral Spetal Nucl, dorsal part", "result": 0}, {"measurement": "c-fos-GFP activation, Midline Thalamus (Nucl Reuniens, RE)", "result": 0}, {"measurement": "c-fos-GFP activation, Midline Thalamus (PVT)", "result": 0}, {"measurement": "c-fos-GFP activation, Motor area, primary (MOp)", "result": 0}, {"measurement": "c-fos-GFP activation, Motor area, secondary (MOs)", "result": 0}, {"measurement": "c-fos-GFP activation, Nucleus Accumbens (ACB), core", "result": "up"}, {"measurement": "c-fos-GFP activation, Nucleus Accumbens (ACB), shell", "result": 0}, {"measurement": "c-fos-GFP activation, Nucleus Accumbens (ACB), whole", "result": 0}, {"measurement": "c-fos-GFP activation, Olfactory tubercle (OT)", "result": 0}, {"measurement": "c-fos-GFP activation, Orbital cortex ventral (VO)", "result": "up"}, {"measurement": "c-fos-GFP activation, Orbital cx (ORB), lateral", "result": "up"}, {"measurement": "c-fos-GFP activation, Orbital cx (ORB), medial", "result": "up"}, {"measurement": "c-fos-GFP activation, Piriform cx (PIR)", "result": "up"}, {"measurement": "c-fos-GFP activation, Prelimbic cx (PL)", "result": "down"}, {"measurement": "c-fos-GFP activation, RSPd, v, d and agl", "result": 0}, {"measurement": "c-fos-GFP activation, Red nucleus (RN)", "result": 0}, {"measurement": "c-fos-GFP activation, Somatosensory cx, primary", "result": 0}, {"measurement": "c-fos-GFP activation, Striatum, ventro-lateral", "result": 0}, {"measurement": "c-fos-GFP activation, Superior Colliculus (SC)", "result": 0}, {"measurement": "c-fos-GFP activation, Temporal cortex", "result": 0}, {"measurement": "c-fos-GFP activation, Ventromedial Thalamus (caudally)", "result": 0}, {"measurement": "c-fos-GFP activation, Zona Inserta", "result": 0}]}
